Literature values, collected in patent US20180284402A1, “TOPICAL ANALGESIC PAIN RELIEF FORMULATIONS, MANUFACTURE AND METHODS OF USE THEREOF” (priority 2016, published 2018).
Read-outs that look alike come from different tables or passages of the source.

Tests used:
hTRPV1 = hTRPV1 (Homo sapiens, UniProt Q8NER1); settings: Takaishi 2012
hTRPA1 [1] = molecular target: T1, hTRPA1 (Homo sapiens, UniProt O75762)
human TRPM8 (hTRPM8) = human TRPM8 (hTRPM8) (Homo sapiens, UniProt Q7Z2W7); settings: Takaishi 2012
hTRPV2 = molecular target: T2, hTRPV2 (Homo sapiens, UniProt Q9Y5S1); settings: Takaishi 2012
T2 sequence (Q9Y5S1 1-764): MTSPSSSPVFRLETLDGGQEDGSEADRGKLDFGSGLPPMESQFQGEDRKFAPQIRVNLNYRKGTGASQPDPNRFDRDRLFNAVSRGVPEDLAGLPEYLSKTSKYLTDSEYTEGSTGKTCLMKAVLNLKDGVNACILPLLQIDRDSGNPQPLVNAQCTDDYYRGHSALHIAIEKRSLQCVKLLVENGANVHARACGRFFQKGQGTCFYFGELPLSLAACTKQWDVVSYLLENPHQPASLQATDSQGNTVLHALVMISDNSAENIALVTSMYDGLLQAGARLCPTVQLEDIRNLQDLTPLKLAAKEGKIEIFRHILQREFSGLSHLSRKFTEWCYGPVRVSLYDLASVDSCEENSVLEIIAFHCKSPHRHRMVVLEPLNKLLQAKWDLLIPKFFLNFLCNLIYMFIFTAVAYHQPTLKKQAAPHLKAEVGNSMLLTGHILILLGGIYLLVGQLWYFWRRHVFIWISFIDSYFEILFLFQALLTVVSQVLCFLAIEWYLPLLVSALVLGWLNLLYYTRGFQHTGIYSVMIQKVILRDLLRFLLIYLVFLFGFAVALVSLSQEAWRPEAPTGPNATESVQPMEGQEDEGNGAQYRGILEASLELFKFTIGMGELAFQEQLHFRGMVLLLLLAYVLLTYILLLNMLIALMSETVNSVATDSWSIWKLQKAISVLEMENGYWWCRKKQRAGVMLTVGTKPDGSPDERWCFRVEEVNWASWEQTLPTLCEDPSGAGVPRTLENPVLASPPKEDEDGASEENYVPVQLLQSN

hTRPA1 [2] = molecular target: T1, hTRPA1; settings: compound at 1 mM; for inhibition of hTRPA1 activation by allyl isothiocyanate (mustard oil): allyl isothiocyanate at 10 uM; for inhibition of hTRPA1 activation by menthol: menthol at 1 mM
pain and itch responses = settings: mice
TRPV1 = settings: Morales-Lazaro 2016

T1 sequence (O75762 whole entry): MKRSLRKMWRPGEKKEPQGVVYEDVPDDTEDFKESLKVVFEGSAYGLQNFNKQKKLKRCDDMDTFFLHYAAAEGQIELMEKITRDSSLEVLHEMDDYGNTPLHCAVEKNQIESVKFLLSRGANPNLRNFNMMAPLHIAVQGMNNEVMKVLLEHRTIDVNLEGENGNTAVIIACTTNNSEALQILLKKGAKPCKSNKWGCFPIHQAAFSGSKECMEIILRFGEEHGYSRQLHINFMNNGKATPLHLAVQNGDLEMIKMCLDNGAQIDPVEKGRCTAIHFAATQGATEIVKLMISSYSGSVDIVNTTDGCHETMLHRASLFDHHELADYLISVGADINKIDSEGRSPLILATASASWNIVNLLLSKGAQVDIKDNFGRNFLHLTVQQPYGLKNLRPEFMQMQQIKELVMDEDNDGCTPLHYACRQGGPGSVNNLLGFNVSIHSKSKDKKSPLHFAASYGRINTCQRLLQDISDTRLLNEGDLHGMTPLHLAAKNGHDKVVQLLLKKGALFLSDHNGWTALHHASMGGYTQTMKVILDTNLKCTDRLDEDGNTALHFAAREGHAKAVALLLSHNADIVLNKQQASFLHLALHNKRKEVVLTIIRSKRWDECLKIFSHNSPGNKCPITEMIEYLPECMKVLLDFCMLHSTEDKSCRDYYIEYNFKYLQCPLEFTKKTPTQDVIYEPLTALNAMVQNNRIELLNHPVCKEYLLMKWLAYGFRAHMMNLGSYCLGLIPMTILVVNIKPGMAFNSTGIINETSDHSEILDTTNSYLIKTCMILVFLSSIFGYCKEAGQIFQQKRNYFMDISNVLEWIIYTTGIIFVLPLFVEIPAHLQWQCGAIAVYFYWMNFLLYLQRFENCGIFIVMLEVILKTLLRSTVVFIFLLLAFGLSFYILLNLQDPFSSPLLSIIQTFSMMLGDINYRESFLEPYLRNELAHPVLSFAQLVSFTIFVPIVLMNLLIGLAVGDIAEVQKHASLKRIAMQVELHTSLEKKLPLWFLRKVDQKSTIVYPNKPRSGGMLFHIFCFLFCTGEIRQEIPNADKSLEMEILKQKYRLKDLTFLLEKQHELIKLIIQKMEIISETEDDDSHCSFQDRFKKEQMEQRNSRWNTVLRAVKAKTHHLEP
hTRPV1, sequence (Q8NER1 whole entry): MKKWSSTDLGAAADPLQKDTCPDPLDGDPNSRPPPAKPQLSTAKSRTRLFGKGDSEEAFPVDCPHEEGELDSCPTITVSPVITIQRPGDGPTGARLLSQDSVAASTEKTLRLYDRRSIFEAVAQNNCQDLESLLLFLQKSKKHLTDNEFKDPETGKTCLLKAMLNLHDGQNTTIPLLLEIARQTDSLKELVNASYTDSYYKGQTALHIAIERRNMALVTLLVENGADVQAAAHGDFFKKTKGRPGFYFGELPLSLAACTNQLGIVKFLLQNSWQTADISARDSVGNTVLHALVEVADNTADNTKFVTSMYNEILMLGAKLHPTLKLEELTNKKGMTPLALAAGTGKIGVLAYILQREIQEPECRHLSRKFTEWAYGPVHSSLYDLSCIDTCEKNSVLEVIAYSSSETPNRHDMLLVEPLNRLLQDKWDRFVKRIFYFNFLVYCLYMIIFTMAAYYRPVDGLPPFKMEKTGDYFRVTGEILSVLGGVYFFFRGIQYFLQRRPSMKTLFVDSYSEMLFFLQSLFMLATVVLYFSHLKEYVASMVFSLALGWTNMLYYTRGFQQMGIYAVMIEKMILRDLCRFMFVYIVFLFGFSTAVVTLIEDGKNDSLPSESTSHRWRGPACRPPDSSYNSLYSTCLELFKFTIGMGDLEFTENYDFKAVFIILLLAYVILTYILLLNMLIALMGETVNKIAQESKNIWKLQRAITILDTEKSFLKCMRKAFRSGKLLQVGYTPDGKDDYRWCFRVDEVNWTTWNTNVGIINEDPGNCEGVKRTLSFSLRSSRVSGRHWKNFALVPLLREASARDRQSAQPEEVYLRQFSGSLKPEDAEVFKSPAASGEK
human TRPM8 (hTRPM8), sequence (Q7Z2W7 whole entry): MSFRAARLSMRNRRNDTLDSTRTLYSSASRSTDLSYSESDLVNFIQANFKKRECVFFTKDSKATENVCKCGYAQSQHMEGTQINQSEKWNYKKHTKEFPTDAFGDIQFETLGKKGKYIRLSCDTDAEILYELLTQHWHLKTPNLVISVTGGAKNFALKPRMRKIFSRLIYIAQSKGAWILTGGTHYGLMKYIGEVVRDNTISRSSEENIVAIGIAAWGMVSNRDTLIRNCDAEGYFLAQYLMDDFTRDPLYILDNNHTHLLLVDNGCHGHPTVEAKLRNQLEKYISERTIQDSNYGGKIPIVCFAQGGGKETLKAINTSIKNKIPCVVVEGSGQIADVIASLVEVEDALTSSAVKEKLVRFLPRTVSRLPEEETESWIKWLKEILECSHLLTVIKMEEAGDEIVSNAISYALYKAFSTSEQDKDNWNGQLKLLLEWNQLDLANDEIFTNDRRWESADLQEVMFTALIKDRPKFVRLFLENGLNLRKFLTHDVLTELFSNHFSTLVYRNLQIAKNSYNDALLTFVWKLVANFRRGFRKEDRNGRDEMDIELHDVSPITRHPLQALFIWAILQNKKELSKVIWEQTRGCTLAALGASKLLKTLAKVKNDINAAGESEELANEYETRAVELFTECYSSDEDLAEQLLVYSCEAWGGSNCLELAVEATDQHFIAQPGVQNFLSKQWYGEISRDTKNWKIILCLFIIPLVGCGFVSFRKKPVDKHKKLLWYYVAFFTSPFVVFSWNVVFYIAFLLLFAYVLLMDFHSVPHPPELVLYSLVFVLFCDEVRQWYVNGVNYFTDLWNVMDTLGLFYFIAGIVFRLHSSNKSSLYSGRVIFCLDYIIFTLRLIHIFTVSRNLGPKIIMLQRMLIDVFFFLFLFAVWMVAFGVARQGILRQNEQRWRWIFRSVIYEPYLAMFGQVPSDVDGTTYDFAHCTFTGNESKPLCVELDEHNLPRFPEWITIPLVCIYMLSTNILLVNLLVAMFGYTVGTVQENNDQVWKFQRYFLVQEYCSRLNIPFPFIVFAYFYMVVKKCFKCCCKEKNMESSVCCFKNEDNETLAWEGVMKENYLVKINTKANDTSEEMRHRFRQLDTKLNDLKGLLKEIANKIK

SMILES	activation of hTRPA1 (hTRPA1 [1]; Takaishi 2014)	inhibition of hTRPA1 activation by allyl isothiocyanate (mustard oil) (hTRPA1 [2])	inhibition of hTRPA1 activation by menthol (hTRPA1 [2])	other results
CC1(C)[C@@H]2CC[C@@]1(C)[C@](C)(O)C2 [2-methylosoborneol]	did not activate	completely inhibited	completely inhibited	–
O=C1CC2CC[C@H]1C2 [norcamphor]	did not activate	–	–	–
CCCCCCCC/C=C\CCCCCCCC(=O)O [oleic acid]	–	–	–	pain and itch responses (pain and itch responses): inhibited; TRPV1 activity (TRPV1): inhibited

Now from value to compound, other results behind:

activation of hTRPA1 (hTRPA1 [1]; Takaishi 2014)	inhibition of hTRPA1 activation by allyl isothiocyanate (mustard oil) (hTRPA1 [2])	inhibition of hTRPA1 activation by menthol (hTRPA1 [2])	SMILES	other results
did not activate	–	–	CC12CCC(CC1)C(C)(C)O2 [1,8-cineole]	activation of hTRPV1 (hTRPV1): did not activate; activation of hTRPA1 (hTRPA1 [1]; Takaishi 2012): without activating; activation of human TRPM8 (hTRPM8) (human TRPM8 (hTRPM8)): activates; activation of hTRPV2 (hTRPV2): did not activate
did not activate	completely inhibited	completely inhibited	CC1(C)C2CCC1(C)C(O)C2 (stereo not drawn) [borneol]	–
did not activate	–	–	CC12CCC(CC1=O)C2(C)C (stereo not drawn) [camphor]	–
did not activate	completely inhibited	completely inhibited	CC12CCC(C1)C(C)(C)C2O (stereo not drawn) [fenchyl alcohol]	–
